Results taken from US7091033B2, “Array of toxicologically relevant canine genes and uses thereof” (Phase-1 Molecular Toxicology, Inc., priority 2000, dated 2006).

Assays:
[1] = test system: canine genes in a canine array (Canine kidney); experiment: Canine array fold induction of canine genes in kidney of dogs dosed with an agent (Table 11); type: in vivo; settings: Canine kidney, 0.8 mg/kg, 2 days
From the text: (§1) Table 11 depicts the fold induction for canine genes in a canine array.

[2] = test system: canine genes of the array; experiment: Canine array fold induction of canine genes in liver of canines dosed with test agents (Table 11); type: in vivo; settings: dog, 2 mg/kg, 10319, Canine liver, 2 mg/kg, 3 day, gene = c0 of the row
From the text: as §1

[3] = test system: canine genes of the array; experiment: Canine array fold induction of canine genes in kidney of canines dosed with test agents (Table 11); type: in vivo; settings: dog, 2 mg/kg, 10189, Canine kidney, 2 mg/kg, 2 days, gene = c0 of the row
From the text: as §1

IL-8 gene expression = experiment: Measurement of IL-8 dose response: IL-8 gene expression (fold induction) in MDCK cells dosed with cadmium chloride, cDNA probes on canine array; type: cell-based; settings: MDCK cells dosed for 24 hrs at 0.1 μM, 1 μM, and 10 μM; FIG. 3
From the text: Dosage response is an important concept in toxicology. Depending on the dosage of a toxin or agent which may be toxic, the gene expression profile of a particular gene may vary. One way that this can be envisioned is by observing the changes in fold induction of a particular gene when analyzed using the arrays of this invention. The dosages determined in dose response curves may be useful in determining “threshold” levels of toxicity, for example for FDA approval. Example 15 and FIG. 3 illustrate this embodiment. Methods of analyzing gene expression and how to correlate gene expression data are provided herein.
Fluorescence-labeled first strand cDNA probe was made from total or mRNA by first isolating RNA from control and treated cells, disclosed supra. […]
The volume of each sample that would contain 20 μg of total RNA (or 2 μg of mRNA) was calculated. The amount of DEPC water needed to bring the total volume of each RNA sample to 14 μl was also calculated. […]
Then the appropriate volume of each RNA sample was added to the labeled PCR tube. […] The tubes were kept on ice until all samples are ready for the next step. It is preferable for the tubes to kept on ice until the next step is ready to proceed. The samples were incubated in a PCR machine for 10 minutes at 70° C. followed by 4° C. incubation period until the sample tubes were ready to be retrieved. […]

[4] = test system: canine genes differentially expressed in organs (liver, spleen, kidney, testes, heart, thymus); experiment: Transcriptome profiling / differential display of tissues from canines exposed to an agent versus vehicle (reverse transcription, PCR, reamplification of bands, sequencing); type: in vivo

SMILES: C[C@@H]1[C@H](O)[C@@H](C)/C=C/C=C/C=C/C=C/C=C/C=C/C=C/[C@H](O[C@@H]2O[C@H](C)[C@@H](O)[C@H](N)[C@@H]2O)C[C@@H]2O[C@](O)(C[C@@H](O)C[C@@H](O)[C@H](O)CC[C@@H](O)C[C@@H](O)CC(=O)O[C@H]1C)C[C@H](O)[C@H]2C(=O)O [Amphoteracin B]
- BRCA1 fold induction [1]: 1.1
- Beta-glucuronidase fold induction [1]: 1.3
- CD40 ligand fold induction [1]: 1.4
- Catalase fold induction [1]: 1.1
- Caveolin-1 fold induction [1]: 1.0
- Caveolin-2 fold induction [1]: 1.0
- Cytochrome P450 2B fold induction [1]: 1.1
- Cytochrome P450 2C21 fold induction [1]: 1.2
- Cytochrome P450 2D fold induction [1]: 1.6
- GRP94 fold induction [1]: 1.9
- Glucose transporter fold induction [1]: 1.2
- Glucose-6-phosphatase fold induction [1]: 1.3
- Glucose-regulated protein 94 #2 fold induction [1]: 1.1
- Glutathione S-transferase alpha subunit fold induction [1]: 1.1
- Interleukin-8 fold induction [1]: 1.2
- Interleukin-10 fold induction [1]: 1.1
- Keratinocyte growth factor fold induction [1]: 1.1
- Mek5 fold induction [1]: 1.1
- Metallothionein 1 fold induction [1]: 2.1
- Multidrug resistant protein-1 fold induction [1]: 1.2
- Phase-1 CCT-11 fold induction [1]: 1.3
- Phase-1 CCT-61 fold induction [1]: 1.1
- Phase-1 CCT-72 fold induction [1]: 1.1
- Phase-1 CCT-74 fold induction [1]: 1.1
- Phase-1 CCT-76 fold induction [1]: 1.0
- Phase-1 CCT-78 fold induction [1]: 1.0
- Phase-1 CCT-80 fold induction [1]: 1.9
- Phase-1 CCT-81 fold induction [1]: 1.0
- Phase-1 CCT-82 fold induction [1]: 1.1
- Phase-1 CCT-83 fold induction [1]: 1.1
- Phase-1 CCT-87 fold induction [1]: 1.1
- Phase-1 CCT-89 fold induction [1]: 1.1
- Phase-1 CCT-91 fold induction [1]: 1.2
- Phase-1 CCT-93 fold induction [1]: 1.0
- Phase-1 CCT-97 fold induction [1]: 1.0
- Phenol sulfotransferase fold induction [1]: 1.0
- Prostaglandin D synthase fold induction [1]: 1.3
- Rab2 fold induction [1]: 1.8
- Rab5 fold induction [1]: 1.1
- Rab7 fold induction [1]: 2.2
- SHB (Src homology 2 protein) fold induction [1]: 1.1
- TFCOUP-related (probable steroid hormone receptor) fold induction [1]: 1.1
- Tissue inhibitor of metalloproteinases-1 fold induction [1]: 2.5
- Tumor necrosis factor-alpha fold induction [1]: 2.0
- UV excision repair protein RAD 23 (XP-C) fold induction [1]: 1.0
- Ubiquitin fold induction [1]: 1.0
- Vascular cell adhesion molecule 1 (VCAM-1) fold induction [1]: 3.5
- ZAP36/annexin IV fold induction [1]: 1.4
- c-erb B-2 fold induction [1]: 1.3
- p38 MAPK fold induction [1]: 1.2
- p53 fold induction [1]: 1.4

SMILES: C[C@@H]1[C@H](O)[C@@H](C)/C=C/C=C/C=C/C=C/C=C/C=C/C=C/[C@H](O[C@@H]2O[C@H](C)[C@@H](O)[C@H](N)[C@@H]2O)C[C@@H]2O[C@](O)(C[C@@H](O)C[C@@H](O)[C@H](O)CC[C@@H](O)C[C@@H](O)CC(=O)O[C@H]1C)C[C@H](O)[C@H]2C(=O)O [Amphoteracin-B]
- BR-cadherin fold induction [1]: 1.0
- Beta-glucuronidase fold induction [1]: 1.1
- CD40 ligand fold induction [1]: 2.2
- Catalase fold induction [1]: 1.6
- Caveolin-1 fold induction [1]: 1.2
- Caveolin-2 fold induction [1]: 2.1
- Cytochrome P450 2B fold induction [1]: 1.1
- Cytochrome P450 2C41 fold induction [1]: 1.2
- Cytochrome P450 2D fold induction [1]: 1.6
- Cytochrome P450 3A fold induction [1]: 1.2
- GRP94 fold induction [1]: 1.2
- Glucose transporter fold induction [1]: 1.3
- Glucose-regulated protein 94 #1 fold induction [1]: 1.2
- Glucose-regulated protein 94 #2 fold induction [1]: 1.1
- Glutathione S-transferase alpha subunit fold induction [1]: 1.8
- Interleukin-8 fold induction [1]: 1.2
- Interleukin-10 fold induction [1]: 5.9
- Keratinocyte growth factor fold induction [1]: 1.6
- Mek5 fold induction [1]: 1.2
- Metallothionein 1 fold induction [1]: 3.1
- Paraoxonase2 (PON2) fold induction [1]: 2.1
- Phase-1 CCT-11 fold induction [1]: 1.1
- Phase-1 CCT-59 fold induction [1]: 1.1
- Phase-1 CCT-60 fold induction [1]: 1.3
- Phase-1 CCT-63 fold induction [1]: 1.1
- Phase-1 CCT-65 fold induction [1]: 1.1
- Phase-1 CCT-66 fold induction [1]: 1.1
- Phase-1 CCT-68 fold induction [1]: 1.1
- Phase-1 CCT-72 fold induction [1]: 1.1
- Phase-1 CCT-73 fold induction [1]: 1.1
- Phase-1 CCT-74 fold induction [1]: 1.1
- Phase-1 CCT-78 fold induction [1]: 1.1
- Phase-1 CCT-84 fold induction [1]: 1.5
- Phase-1 CCT-87 fold induction [1]: 1.0
- Phase-1 CCT-91 fold induction [1]: 1.5
- Phase-1 CCT-92 fold induction [1]: 1.4
- Phase-1 CCT-94 fold induction [1]: 1.1
- Phenol sulfotransferase fold induction [1]: 5.3
- Prostaglandin D synthase fold induction [1]: 1.4
- Rab2 fold induction [1]: 1.1
- Rab5 fold induction [1]: 1.1
- Rab7 fold induction [1]: 1.1
- SHB (Src homology 2 protein) fold induction [1]: 1.2
- Tumor necrosis factor-alpha fold induction [1]: 3.5
- UV excision repair protein RAD 23 (XP-C) fold induction [1]: 1.1
- Ubiquitin fold induction [1]: 1.3
- ZAP36/annexin IV fold induction [1]: 1.1
- c-erb B-2 fold induction [1]: 1.2
- p53 fold induction [1]: 1.2

SMILES: CN(Cc1cnc2nc(N)nc(N)c2n1)c1ccc(C(=O)N[C@@H](CCC(=O)O)C(=O)O)cc1 [Methotrexate]
- fold induction at 3 days [2]: 1.1
- fold induction at 2 days [3]: 1.1

SMILES: [Cl][Cd][Cl] [cadmium chloride]
- IL-8 gene expression, fold induction (IL-8 gene expression): fold induction varies with the dosage

SMILES: COc1cc([C@@H]2c3cc4c(cc3[C@@H](O[C@@H]3O[C@@H]5CO[C@@H](C)O[C@H]5[C@H](O)[C@H]3O)[C@H]3COC(=O)[C@H]23)OCO4)cc(OC)c1O [etoposide]
- Expression Pattern ([4]; Band # CTP3B, Homo Sapien N-myc dow BC003175, larger band of doublet): doublet-larger band is upregulated
- Expression Pattern ([4]; Band # CTP27C, Homo sapiens CTCL turn AF177227): repressed with etoposide and aspirin
- Expression Pattern ([4]; Band # CTP37A, Homo sapiens nuclear fax AF167569): repressed with etoposide
- Expression Pattern ([4]; Band # CTP143B, No significant match): induced with etoposide and caffeine
- Expression Pattern ([4]; Band # CTP150A, No significant match): repressed with etoposide
- Expression Pattern ([4]; Band # CTP150C, Canis familiaris mitochon CFU96639): repressed with etoposide
- Expression Pattern ([4]; Band # CTP156J, Human DNA sequence fn AL136120): induced with etoposide and caffeine
- Expression Pattern ([4]; Band # CTP216A, Canis familiaris heat-shoc U19368): repressed with etoposide

SMILES: N.N.[Cl][Pt+2][Cl] [transplatin]
- Expression Pattern ([4]; Band # CTP60B, Homo sapiens RNA bindii XM_016120): repressed with carbo and trans platin
- Expression Pattern ([4]; Band # CTP65A, Pig mRNA for endoplasm X16951): repressed with carbo and trans platin
- Expression Pattern ([4]; Band # CTP74A, No significant match): repressed with carbo, trans and cisplatin
- Expression Pattern ([4]; Band # CTP75C, No significant match): repressed with carbo, trans and cisplatin
- Expression Pattern ([4]; Band # CTP85D, Homo sapiens Rho-assoc XM_008814): repressed with carbo, trans and cisplatin
- Expression Pattern ([4]; Band # CTP122I, Human mRNA for KIAA0(D26067)): repressed with carbo and transplatin
- Expression Pattern ([4]; Band # CTP129A, Homo sapiens, Similar to BC007583): induced with transplatin
- Expression Pattern ([4]; Band # CTP185C, No significant match): induced with carbo and trans platin
- Expression Pattern ([4]; Band # CTP206A, Homo sapiens fatty acid c NM_013402): repressed with carbo and transplatin
- Expression Pattern ([4]; Band # CTP208B, No significant match): induced with transplatin
- Expression Pattern ([4]; dog, in vivo): repressed with carbo and trans platin
